Results from PubChem BioAssay (NCI).
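Five concentrations, 48 hours, 96-well plates. TGI denotes the concentration required for complete inhibition of growth.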

Experiments:
Assay in all cases: DTP human tumour cell line panel, 48 h
[1] = test system: DMS 114 small cell lung
[2] = test system: DMS 273 small cell lung
[3] = test system: HOP-18 NSCLC
[4] = test system: KM20L2 colon
[5] = test system: LXFL 529 NSCLC
[6] = test system: M19-MEL melanoma
[7] = test system: SNB-78 CNS
[8] = test system: XF 498 CNS
[9] = test system: RXF-631 renal

Compound	TGI [1] [µM]	TGI [2] [µM]	TGI [3] [µM]	TGI [4] [µM]	TGI [5] [µM]	TGI [6] [µM]	TGI [7] [µM]	TGI [8] [µM]	TGI [9] [µM]
O=C1CCCCC1C1(O)C(=O)Nc2cc(F)ccc21 (stereo not drawn)	> 100	> 100	> 100	> 100	> 100	> 100	> 100	> 100	–
CC(C)CC(=O)N1CCN(C(=O)CC(C)C)c2ccccc21	> 100	> 100	> 100	> 100	> 100	> 100	> 100	> 100	> 100
Cn1c(=O)c2c(ncn2CCCCn2ccnc2[N+](=O)[O-])n(C)c1=O	> 100	> 100	–	> 100	> 100	> 100	> 100	> 100	–
COc1ccc(C2Cc3cc(OC)c(OC)c(OC)c3C2=O)cc1 (stereo not drawn)	> 100	> 100	> 100	> 100	–	> 100	> 100	–	–
COc1ccc(NC(=O)CSc2nnc(Cc3ccccc3)o2)cc1	> 100	> 100	> 100	> 100	> 100	> 100	> 100	–	–
COC(=O)C(C(=O)C(=O)Nc1c(Cl)cc([N+](=O)[O-])cc1Cl)c1nc2cc(C)c(C)cc2[nH]c1=O (stereo not drawn)	> 100	> 100	> 100	> 100	> 100	> 100	> 100	–	> 100
CNC(=S)NNC(=O)c1c(C)nc2sccn12	–	> 100	> 100	> 100	> 100	> 100	–	> 100	> 100
O=S1(=O)COc2ccccc2-c2ncncc21	> 100	–	> 100	> 100	> 100	> 100	> 100	–	> 100
CCOC(=O)[C@H](Cc1ccccc1)NC(=O)c1nc[nH]c1[N+](=O)[O-]	> 100	> 100	–	–	> 100	> 100	–	–	–
CSc1nc2nc(C)c(C)nc2c(=O)[nH]1	> 100	> 100	> 100	> 100	> 100	> 100	–	> 100	–
CC(C)Cc1ccc(C(C)/C=C2\CCC(CN3CCOCC3)C2=O)cc1 (stereo not drawn)	42.4	–	19.2	31.5	4.09	28.8	> 72.8	30	41.2
O=C(CC(=O)C(=O)CC(=O)OCc1ccccc1)OCc1ccccc1	> 100	–	–	> 100	> 100	> 100	–	–	–
CCN(CC)CC(O)CNc1ccc(NCC(O)CCl)c2c1C(=O)c1ccccc1C2=O (stereo not drawn)	–	13.6	–	18.5	15.8	22.1	22.8	26.9	–
COC(=O)C(CCC1(C)OCCO1)C(C)=O (stereo not drawn)	> 100	> 100	> 100	> 100	> 100	> 100	> 100	> 100	> 100
COC1=C(C)C(=O)C2C(C1=O)C(c1ccc(OC)c(OC)c1)[C@H]2C (stereo partly drawn)	–	> 100	–	–	> 100	> 100	> 100	> 100	> 100
Cc1ccc(/C=C/C(=O)c2sc(C(N)=S)nc2C)cc1	–	> 100	> 100	> 100	–	> 100	> 100	–	–
